According to the supplement of paper PMC10307832:

Columns and labels:
Experiment in all cases: relative viability (nuclei count vs DMSO), 5 days (fraction); higher = more cells survive
17-AAG + Navitoclax = compound: C=CCNC1=C2C[C@@H](C)C[C@H](OC)[C@H](O)[C@@H](C)/C=C(\C)[C@H](OC(N)=O)[C@@H](OC)/C=C\C=C(/C)C(=O)NC(=CC1=O)C2=O [17-AAG] + CC1(C)CCC(c2ccc(Cl)cc2)=C(CN2CCN(c3ccc(C(=O)NS(=O)(=O)c4ccc(N[C@H](CCN5CCOCC5)CSc5ccccc5)c(S(=O)(=O)C(F)(F)F)c4)cc3)CC2)C1 [Navitoclax] (partner 0.5 µM)
Summary of the method: (§1)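 Relative viability divides the nuclei count in treated wells by that in vehicle wells. Lung cancer cell lines were seeded in 1536-well plates, dosed by pin tool the next day, and fixed and stained after 5 days in one step with final 0.05% Triton X-100, 1% formaldehyde and 1 ug/ml Hoechst. Dosing was a single drug or a fixed anchor-drug dose plus five library-drug doses (not always all listed) in √10 steps, and values are medians of duplicate plates imaged at 4×.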

17-AAG + Linsitinib = compound: C=CCNC1=C2C[C@@H](C)C[C@H](OC)[C@H](O)[C@@H](C)/C=C(\C)[C@H](OC(N)=O)[C@@H](OC)/C=C\C=C(/C)C(=O)NC(=CC1=O)C2=O [17-AAG] + C[C@]1(O)C[C@@H](c2nc(-c3ccc4ccc(-c5ccccc5)nc4c3)c3c(N)nccn32)C1 [Linsitinib] (partner 1 µM)
Summary of the method: as §1

17-AAG + Alpelisib = compound: C=CCNC1=C2C[C@@H](C)C[C@H](OC)[C@H](O)[C@@H](C)/C=C(\C)[C@H](OC(N)=O)[C@@H](OC)/C=C\C=C(/C)C(=O)NC(=CC1=O)C2=O [17-AAG] + Cc1nc(NC(=O)N2CCC[C@H]2C(N)=O)sc1-c1ccnc(C(C)(C)C(F)(F)F)c1 [Alpelisib] (partner 2 µM)
Summary of the method: as §1

17-AAG + Vorinostat = compound: C=CCNC1=C2C[C@@H](C)C[C@H](OC)[C@H](O)[C@@H](C)/C=C(\C)[C@H](OC(N)=O)[C@@H](OC)/C=C\C=C(/C)C(=O)NC(=CC1=O)C2=O [17-AAG] + O=C(CCCCCCC(=O)Nc1ccccc1)NO [Vorinostat] (partner 1 µM)
Summary of the method: as §1

Row | Cell Line | relative viability (17-AAG + Navitoclax; first compound 0.00128 µM) | relative viability (17-AAG + Navitoclax; first compound 0.004048 µM) | relative viability (17-AAG + Navitoclax; first compound 0.0128 µM) | relative viability (17-AAG + Navitoclax; first compound 0.04048 µM) | relative viability (17-AAG + Navitoclax; first compound 0.128 µM) | relative viability (17-AAG + Linsitinib; first compound 0.00128 µM) | relative viability (17-AAG + Linsitinib; first compound 0.004048 µM) | relative viability (17-AAG + Linsitinib; first compound 0.0128 µM) | relative viability (17-AAG + Linsitinib; first compound 0.04048 µM) | relative viability (17-AAG + Linsitinib; first compound 0.128 µM) | relative viability (17-AAG + Alpelisib; first compound 0.00128 µM) | relative viability (17-AAG + Alpelisib; first compound 0.004048 µM) | relative viability (17-AAG + Alpelisib; first compound 0.0128 µM) | relative viability (17-AAG + Alpelisib; first compound 0.04048 µM) | relative viability (17-AAG + Alpelisib; first compound 0.128 µM) | relative viability (17-AAG + Vorinostat; first compound 0.00128 µM) | relative viability (17-AAG + Vorinostat; first compound 0.004048 µM) | relative viability (17-AAG + Vorinostat; first compound 0.0128 µM) | relative viability (17-AAG + Vorinostat; first compound 0.04048 µM) | relative viability (17-AAG + Vorinostat; first compound 0.128 µM)
1 | LCLC-97TM1 | 0.47 | 0.573 | 0.518 | 0.378 | 0.355 | 0.192 | 0.198 | 0.211 | 0.269 | 0.182 | 0.204 | 0.294 | 0.235 | 0.26 | 0.161 | 0.848 | 0.668 | 0.634 | 0.44 | 0.0747
2 | HARA | 1.16 | 1.21 | 1.15 | 1.12 | 1.14 | 0.947 | 1.01 | 0.909 | 0.442 | 0.754 | 0.887 | 0.967 | 0.736 | 0.828 | 0.378 | 0.485 | 0.586 | 0.517 | 0.396 | 0.097
3 | HCC-78 | 0.753 |  | 0.938 | 0.942 | 0.286 | 0.626 |  | 0.608 | 0.62 | 0.294 | 0.418 |  | 0.446 | 0.326 | 0.294 | 0.441 | 0.42 | 0.47 | 0.689 | 0.413
4 | NCI-H1666 | 0.958 | 0.699 | 0.277 | 0.314 | 0.236 | 0.764 | 0.554 | 0.27 | 0.253 | 0.224 | 0.949 | 0.713 | 0.299 | 0.216 | 0.214 | 1.1 | 1.06 | 1.02 | 0.498 | 0.482
5 | NCI-H2405 | 0.98 | 0.71 | 0.231 | 0.271 | 0.165 | 1.02 | 0.737 | 0.262 | 0.219 | 0.194 | 0.942 | 0.695 | 0.221 | 0.233 | 0.16 | 1.08 | 0.994 | 0.391 | 0.209 | 0.193
6 | PC-14 | 1.04 | 1.02 | 1.02 | 0.118 | 0.0935 | 1 | 0.879 | 0.575 | 0.169 | 0.124 | 0.939 | 0.726 | 0.662 | 0.106 | 0.0874 | 0.683 | 0.464 | 0.0532 | 0.081 | 0.056
7 | NCI-H2023 | 0.989 | 0.867 | 0.641 | 0.11 | 0.112 | 0.595 | 0.501 | 0.103 | 0.117 | 0.0914 | 0.582 | 0.66 | 0.273 | 0.0878 | 0.0906 | 0.572 | 0.37 | 0.112 | 0.0782 | 0.0643
8 | 201T | 1.21 | 1.21 | 1.17 | 1.16 | 0.973 | 1.06 | 1.05 | 1.01 | 0.985 | 0.863 | 1.07 | 1.03 | 0.984 | 0.943 | 0.818 | 0.932 | 0.945 | 0.858 | 0.55 | 0.252
9 | NCI-H1915 | 0.763 | 0.754 | 0.797 | 0.771 | 0.409 | 1.05 | 1.08 | 1.14 | 1.07 | 0.83 | 1.05 | 1.06 | 1.04 | 1.02 | 0.458 | 0.447 | 0.465 | 0.45 | 0.167 | 0.0637
10 | NCI-H2009 | 1.1 | 1.09 | 1.07 | 0.884 | 0.369 | 1.14 | 1.2 | 1.01 | 0.775 | 0.328 | 1.13 | 1.19 | 1.13 | 0.853 | 0.366 | 0.681 | 0.724 | 0.735 | 0.699 | 0.276
11 | BEN | 0.069 | 0.0609 | 0.0634 | 0.052 | 0.0666 | 0.971 | 0.947 | 0.911 | 0.89 | 0.276 | 1.02 | 0.978 | 1.04 | 0.84 | 0.257 | 0.673 | 0.586 | 0.664 | 0.667 | 0.464
12 | PC-3 [JPC-3] | 0.794 | 0.82 | 0.835 |  | 0.793 | 1 | 0.883 | 0.959 |  | 0.911 | 0.976 | 1.03 | 1.02 |  | 0.955 | 1 | 0.819 | 0.795 | 0.503 | 0.8
13 | SK-MES-1 | 1.17 | 1.12 | 0.951 | 0.162 | 0.131 | 1 | 1.01 | 0.598 | 0.282 | 0.165 | 0.884 | 0.842 | 0.553 | 0.144 | 0.152 | 1.1 | 1.03 | 0.514 | 0.182 | 0.179
14 | NCI-H838 | 1.15 | 1.12 | 1.07 | 0.165 | 0.166 | 0.942 | 0.97 | 0.756 | 0.17 | 0.142 | 0.872 | 0.96 | 0.803 | 0.176 | 0.158 | 0.759 | 0.779 | 0.213 | 0.168 | 0.169
15 | NCI-H1355 | 0.927 | 0.944 | 0.958 | 0.449 | 0.373 | 0.946 | 0.747 | 0.776 | 0.725 | 0.286 | 0.867 | 0.86 | 0.884 | 0.86 | 0.327 | 0.639 | 0.692 | 0.607 | 0.228 | 0.141
